The results in this text go back to ChEMBL document CHEMBL5126592, “Design, synthesis and activity against drug-resistant bacteria evaluation of C-20, C-23 modified 5-O-mycaminosyltylonolide derivatives” (Eur J Med Chem, 2022).

Molecules are shown by their SMILES. Converted amounts (≈) assume the structure as drawn.

Assay type in all cases: functional
Settings in all cases: time 16-20 hrs

Assay [1] has as its system Escherichia coli. The assay is described as follows: Antibacterial activity against Escherichia coli ATCC 25922 incubated for 16 to 20 hrs by broth microdilution method.
Assay [2] has as its system Klebsiella pneumoniae. The assay is described as follows: Antibacterial activity against Klebsiella pneumoniae ATCC 13883 incubated for 16 to 20 hrs by broth microdilution method.
Assay [3] concerns Enterococcus faecium. The assay is described as follows: Antibacterial activity against Enterococcus faecium incubated for 16 to 20 hrs by broth microdilution method.
Assay [4] relates to Staphylococcus chromogenes. Put plainly: Antibacterial activity against Staphylococcus chromogenes incubated for 16 to 20 hrs by broth microdilution method.
For assay [5], the system named is Staphylococcus aureus. Put plainly: Antibacterial activity against Staphylococcus aureus ATCC 25923 incubated for 16 to 20 hrs by broth microdilution method.
For assay [6], the system named is Streptococcus dysgalactiae. Put plainly: Antibacterial activity against Streptococcus dysgalactiae incubated for 16 to 20 hrs by broth microdilution method.
Assay [7] relates to Cronobacter sakazakii. The assay is described as follows: Antibacterial activity against Cronobacter sakazakii ATCC 29544 incubated for 16 to 20 hrs by broth microdilution method.
Assay [8] relates to Escherichia coli. Put plainly: Antibacterial activity against Escherichia coli incubated for 16 to 20 hrs by broth microdilution method.
Assay [9] deals with Staphylococcus aureus. Put plainly: Antibacterial activity against Staphylococcus aureus incubated for 16 to 20 hrs by broth microdilution method.
Assay [10] concerns Pseudomonas aeruginosa. Put plainly: Antibacterial activity against Pseudomonas aeruginosa LTP-3 incubated for 16 to 20 hrs by broth microdilution method.

For `CC[C@H]1OC(=O)C[C@@H](O)[C@H](C)[C@@H](O[C@@H]2O[C@H](C)[C@@H](O)[C@H](N(C)C)[C@H]2O)[C@@H](CCN(Cc2ccccc2)Cc2cn(-c3cnc4ccccc4c3)nn2)C[C@@H](C)C(=O)/C=C/C(C)=C/[C@@H]1CO`, the MIC in assay [1] was found to be 8 µg/mL (≈ 8.92 µM); in assay [2], 8 µg/mL (≈ 8.92 µM); in [3], 4 µg/mL (≈ 4.46 µM); in assay [4], 4 µg/mL (≈ 4.46 µM); in [5], 0.25 µg/mL (≈ 0.279 µM); in assay [6], 0.5 µg/mL (≈ 0.557 µM). Besides, the MIC in [7] came to 32 µg/mL (≈ 35.7 µM); in assay [8], 8 µg/mL (≈ 8.92 µM); in assay [9], 0.5 µg/mL (≈ 0.557 µM); in [10] it was 4 µg/mL (≈ 4.46 µM).

Turning to `CC[C@H]1OC(=O)C[C@@H](O)[C@H](C)[C@@H](O[C@@H]2O[C@H](C)[C@@H](O)[C@H](N(C)C)[C@H]2O)[C@@H](CCN(C)Cc2cn(-c3cnc4ccccc4c3)nn2)C[C@@H](C)C(=O)/C=C/C(C)=C/[C@@H]1CN(CC)CC`, the MIC in [1] worked out at 2 µg/mL (≈ 2.28 µM); in assay [2] it was 1 µg/mL (≈ 1.14 µM); in [3], 2 µg/mL (≈ 2.28 µM); in assay [4], 1 µg/mL (≈ 1.14 µM); in assay [5] it was 0.125 µg/mL (≈ 0.143 µM); in assay [6], 0.5 µg/mL (≈ 0.571 µM). Moreover, the MIC amounted to 4 µg/mL (≈ 4.57 µM) in assay [7], 4 µg/mL (≈ 4.57 µM) in [8], 0.5 µg/mL (≈ 0.571 µM) in assay [9] and 2 µg/mL (≈ 2.28 µM) in assay [10].

Consider `NC[C@H]1O[C@H](O[C@H]2[C@H](O)[C@@H](O[C@H]3O[C@H](CO)[C@@H](O)[C@H](N)[C@H]3O)[C@H](N)C[C@@H]2N)[C@H](N)C[C@@H]1O` [TOBRAMYCIN], for which the minimum inhibitory concentration (MIC) was 8 µg/mL (≈ 17.1 µM) in assay [1]; 8 µg/mL (≈ 17.1 µM) in assay [2]; 32 µg/mL (≈ 68.4 µM) in assay [3]; 2 µg/mL (≈ 4.28 µM) in assay [4]; 8 µg/mL (≈ 17.1 µM) in assay [5]; 16 µg/mL (≈ 34.2 µM) in assay [6]. The MIC in assay [7] is 16 µg/mL (≈ 34.2 µM); in assay [8] it was > 32 µg/mL; in [9], 1 µg/mL (≈ 2.14 µM); in [10], 32 µg/mL (≈ 68.4 µM).

Regarding `CC[C@H]1OC(=O)C[C@@H](O)[C@H](C)[C@@H](O[C@@H]2O[C@H](C)[C@@H](O)[C@H](N(C)C)[C@H]2O)[C@@H](CCN(C)Cc2cn(-c3cnc4ccccc4c3)nn2)C[C@@H](C)C(=O)/C=C/C(C)=C/[C@@H]1CN1CCCCCCC1`, the MIC in assay [1] came out at 2 µg/mL (≈ 2.18 µM); in [2], 1 µg/mL (≈ 1.09 µM); in assay [3], 2 µg/mL (≈ 2.18 µM); in assay [4] it was 1 µg/mL (≈ 1.09 µM); in assay [5] it was 0.125 µg/mL (≈ 0.136 µM); in [6], 0.5 µg/mL (≈ 0.546 µM). The MIC in assay [7] came out at 4 µg/mL (≈ 4.37 µM); in assay [8], 2 µg/mL (≈ 2.18 µM); in assay [9], 0.5 µg/mL (≈ 0.546 µM); in assay [10], 1 µg/mL (≈ 1.09 µM).

On to `CC[C@H]1OC(=O)C[C@@H](O)[C@H](C)[C@@H](O[C@@H]2O[C@H](C)[C@@H](O)[C@H](N(C)C)[C@H]2O)[C@@H](CCN(C)Cc2cn(-c3cnc4ccccc4c3)nn2)C[C@@H](C)C(=O)/C=C/C(C)=C/[C@@H]1CN(C)C`, for which the MIC in assay [1] is 2 µg/mL (≈ 2.36 µM); in assay [2], 2 µg/mL (≈ 2.36 µM); in [3], 1 µg/mL (≈ 1.18 µM); in assay [4] it was 0.5 µg/mL (≈ 0.59 µM); in assay [5], 0.25 µg/mL (≈ 0.295 µM); in assay [6], 2 µg/mL (≈ 2.36 µM). For the same molecule, the MIC in assay [7] turned out to be 4 µg/mL (≈ 4.72 µM); in assay [8], 2 µg/mL (≈ 2.36 µM); in [9] it was 0.25 µg/mL (≈ 0.295 µM); in [10] it was 2 µg/mL (≈ 2.36 µM).

Take `CC[C@H]1OC(=O)C[C@@H](O)[C@H](C)[C@@H](O[C@@H]2O[C@H](C)[C@@H](O)[C@H](N(C)C)[C@H]2O)[C@@H](CC=O)C[C@@H](C)C(=O)/C=C/C(C)=C/[C@@H]1CO`: the MIC in assay [1] was > 32 µg/mL; in assay [2] it was > 32 µg/mL; in assay [3], 1 µg/mL (≈ 1.67 µM); in assay [4] it was 1 µg/mL (≈ 1.67 µM); in assay [5], 0.5 µg/mL (≈ 0.836 µM); in assay [6], 1 µg/mL (≈ 1.67 µM). Moreover, the MIC in assay [7] is > 32 µg/mL; in assay [8], > 32 µg/mL; in [9], 1 µg/mL (≈ 1.67 µM); in assay [10], 32 µg/mL (≈ 53.5 µM).

With `CC[C@H]1OC(=O)C[C@@H](O)[C@H](C)[C@@H](O[C@@H]2O[C@H](C)[C@@H](O)[C@H](N(C)C)[C@H]2O)[C@@H](CCN(C)Cc2cn(-c3cnc4ccccc4c3)nn2)C[C@@H](C)C(=O)/C=C/C(C)=C/[C@@H]1CN1CCCCC1`, the MIC turned out to be 2 µg/mL (≈ 2.25 µM) in assay [1]; 2 µg/mL (≈ 2.25 µM) in [2]; 1 µg/mL (≈ 1.13 µM) in assay [3]; 0.5 µg/mL (≈ 0.563 µM) in assay [4]; 0.5 µg/mL (≈ 0.563 µM) in assay [5]; 0.5 µg/mL (≈ 0.563 µM) in [6]. Further, the minimal inhibitory concentration (MIC) was determined as 8 µg/mL (≈ 9.01 µM) in assay [7], 2 µg/mL (≈ 2.25 µM) in assay [8], 0.25 µg/mL (≈ 0.281 µM) in assay [9] and 1 µg/mL (≈ 1.13 µM) in assay [10].

Regarding `CC[C@H]1OC(=O)C[C@@H](O)[C@H](C)[C@@H](O[C@@H]2O[C@H](C)[C@@H](O)[C@H](N(C)C)[C@H]2O)[C@@H](CCN(C)Cc2cn(-c3cnc4ccccc4c3)nn2)C[C@@H](C)C(=O)/C=C/C(C)=C/[C@@H]1CO`, the MIC in [1] was 4 µg/mL (≈ 4.87 µM); in assay [2] it was 2 µg/mL (≈ 2.44 µM); in [3] it was 2 µg/mL (≈ 2.44 µM); in assay [4] it was 0.125 µg/mL (≈ 0.152 µM); in [5] it was 1 µg/mL (≈ 1.22 µM); in [6], 0.5 µg/mL (≈ 0.609 µM). In addition, the MIC came to 8 µg/mL (≈ 9.74 µM) in assay [7], 4 µg/mL (≈ 4.87 µM) in [8], 0.25 µg/mL (≈ 0.304 µM) in [9] and 4 µg/mL (≈ 4.87 µM) in assay [10].
